{"source": "paper PMC5895803", "about": "“Inhibition of cancer stem cell like cells by a synthetic retinoid” (Nature Communications, 2018)", "key": {"[1]": {"tested_on": "B16-F1 TRCs", "assay": "Colony growth of B16-F1 TRCs in 90-Pa 3D soft fibrin gels", "assay_type": "cell-based, murine", "conditions": "for Rescue of TRC growth from inhibitory effects of Tazarotene by pretreatment: pretreated 3 h before 0.1 or 1 μM Tazarotene; for Rescue of TRC growth from inhibitory effects of WYC-209 by pretreatment: pretreated 3 h before 0.1 or 1 μM WYC-209, day 5; for inhibition at 10 µM: B16-F1, 10 μM"}, "[2]": {"assay": "Water solubility", "conditions": "pH 7.4, aqueous buffer, kinetic from dmso stock"}, "[3]": {"biological_target": "mouse RARs", "parameters": "method as in earlier work", "conditions": "ref 1 (supplement); read-out: published Kd values to mouse RARs; cited from earlier work"}, "[4]": {"tested_on": "B16-F1 TRCs", "assay": "Cell cycle analysis (BrdU flow cytometry), S phase of TRCs", "assay_type": "cell-based, murine", "conditions": "10 μM, 24 hours", "experimental": "For Annexin-V and PI staining to quantify cell apoptosis, treated TRCs were isolated from 3D fibrin gel by using 5 mg mL^−1 Dispase II (Sigma), cells were labeled with FITC-conjugated Annexin-V and PI according to the manufacturer’s instruction (Biolegend). Data were acquired on a BD Cantoll (BD biosciences) and analyzed with FlowJo software. For BrdU staining to quantify cell proliferation, cells were labeled with FITC-conjugated anti-BrdU antibody according to the manufacturer’s instruction (FITC BrdU Flow Kit, BD Biosciences) and then data were acquired on an Accuri C6 (BD Biosciences) and analyzed with BD Accuri C6 software.\nSupplementary Figure 13. WYC-209 blocks S phase of TRCs. Different cancer cell lines cultured in 3D soft fibrin gel on day 0, then treated with 0.1, 1, or 10 μM WYC-209, WYC-209A, WYC-209B on day 4, isolated cells after 24 hours and labeled with FITC-conjugated anti-BrdU antibody for cell cycle analysis, 10 μM ATRA and Tazarotne as positive controls. (a) Representative images of flow cytometry in different conditions. (b) Quantification of S phase ratio in different conditions. Mean ± s.e.m.; n=3 independent experiments; * P<0.05; ** P<0.01; *** P<0.001 (Student’s t-test).\n(1 picture or pasted object on this page, not shown here)"}, "[5]": {"tested_on": "melanoma TRCs", "parameters": "method as in PMID 25099074", "conditions": "high concentrations (1 and 100 μM); cited from earlier work"}, "[6]": {"parameters": "method as in doi:10.1016/j.jaad.2003.11.002", "conditions": "cited from earlier work"}, "[7]": {"biological_target": "T1, CYP 2C19 (Homo sapiens, UniProt P33261)", "T1 construct": "from tissue; host or cells: human liver microsomes", "T1 sequence (P33261 whole entry)": "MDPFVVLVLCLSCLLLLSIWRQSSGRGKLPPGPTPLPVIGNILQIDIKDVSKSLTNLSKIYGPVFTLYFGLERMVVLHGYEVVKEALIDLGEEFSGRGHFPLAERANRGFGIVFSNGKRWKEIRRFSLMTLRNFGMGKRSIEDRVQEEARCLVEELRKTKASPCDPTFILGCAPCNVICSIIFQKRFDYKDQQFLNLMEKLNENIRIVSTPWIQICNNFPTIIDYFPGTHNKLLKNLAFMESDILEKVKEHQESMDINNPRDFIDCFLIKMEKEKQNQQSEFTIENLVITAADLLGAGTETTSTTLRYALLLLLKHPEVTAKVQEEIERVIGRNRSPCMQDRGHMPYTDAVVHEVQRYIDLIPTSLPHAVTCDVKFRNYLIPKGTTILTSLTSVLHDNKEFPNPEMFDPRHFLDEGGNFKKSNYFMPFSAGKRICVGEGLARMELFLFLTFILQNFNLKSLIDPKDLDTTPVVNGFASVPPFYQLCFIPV", "assay": "Cytochromes enzyme inhibition assay, human liver microsomes", "assay_type": "in vitro ADME", "conditions": "substrate S-mephenytoin (35 µM)"}, "[8]": {"tested_on": "human malignant melanoma A375", "assay": "Colony growth of A375 TRCs in 90-Pa fibrin gels", "assay_type": "cell-based", "conditions": "pretreated 3 h before 0.1 or 1 μM WYC-209, day 7", "experimental": "Salmon fibrinogen and thrombin were purchased from Reagent Proteins (CA, USA). 3D fibrin gels were prepared as described previously[5],[6]. In brief, fibrinogen was diluted into 2 mg mL^−1 with T7 buffer (pH 7.4, 50 mM Tris, 150 mM NaCl). Cells were detached from 2D rigid dishes and cell density was adjusted to 10^4 cells per mL. Fibrinogen and cell solution mixture were made by mixing the same volume of fibrinogen solution and cell solution, resulting in 1 mg mL^−1 fibrinogen and 5000 cells per mL in the mixture fibrin gels. A volume of 50 μL cell/fibrinogen mixture was seeded into each well of 96-well plate and mixed well with pre-added 1 μL thrombin (100 U mL^−1). The cell culture plate was then incubated in 37 °C cell culture incubator for 10 min. Finally, 200 μL of DMEM medium containing 10% FBS and antibiotics was added."}, "[9]": {"conditions": "Mus musculus, treated on day 0, day 5"}}}
{"smiles": "CC1(C)CC=C(c2cnc3ccccc3c2)c2cc(C(=O)Nc3ccc(C(=O)O)cc3)ccc21", "note": "[BMS195614, reference compound]", "values": [{"measurement": "Impact of antagonist alone on TRC growth", "setting": "[1]", "result": "no impact on TRC growth"}, {"measurement": "Rescue of TRC growth from inhibitory effects of Tazarotene by pretreatment", "setting": "[1]", "result": "rescuing effect was minimal"}, {"measurement": "Rescue of TRC growth from inhibitory effects of WYC-209 by pretreatment", "setting": "[1]", "result": "rescued the TRC growth"}]}
{"smiles": "CC(C)NCC(O)COc1cccc2ccccc12", "note": "(centres unmarked) [Propranolol, reference compound]", "values": [{"measurement": "solubility at 1 h", "setting": "[2]", "result": "> 100", "unit": "µM"}]}
{"smiles": "CC1=C(/C=C/C(C)=C/C=C/C(C)=C/C(=O)O)C(C)(C)CCC1", "note": "[ATRA, all-trans retinoic acid, reference compound]", "values": [{"measurement": "Kd", "setting": "[3]", "result": "0.2 to 0.36", "unit": "nM"}, {"measurement": "Decrease of S phase of TRCs", "setting": "[4]", "result": "~55", "unit": "%"}, {"measurement": "inhibition at 10 µM", "setting": "[1]; [9]", "result": 80, "unit": "%"}]}
{"smiles": "COc1cccc2c1C(=O)c1c(O)c3c(c(O)c1C2=O)C[C@@](O)(C(=O)CO)C[C@@H]3O[C@H]1C[C@H](N)[C@H](O)[C@H](C)O1", "note": "[doxorubicin]", "values": [{"measurement": "TRCs not killed", "setting": "[5]", "result": "20–30%"}]}
{"smiles": "CCOC(=O)c1ccc(C#Cc2ccc3c(c2)C(C)(C)CCS3)nc1", "note": "[Tazarotene, reference compound]", "values": [{"measurement": "Decrease of S phase of TRCs", "setting": "[4]", "result": "~ 45%"}, {"measurement": "Growth inhibition at 10 μM", "setting": "[1]; 10 μM, treated on day 0, day 5, 10 µM", "result": 71, "unit": "%"}, {"measurement": "inhibition at 10 µM", "setting": "[1]; [9]", "result": 71.2, "unit": "%"}, {"measurement": "IC50", "setting": "[1]; Mus musculus, B16-F1 in 90-Pa fibrin gels, treated on day 0, colony size on day 5", "result": 1720, "unit": "nM"}]}
{"smiles": "CC(=O)N1CCN(c2ccc(OCC3COC(Cn4ccnc4)(c4ccc(Cl)cc4Cl)O3)cc2)CC1", "note": "(centres unmarked) [Ketoconazole, reference compound]", "values": [{"measurement": "solubility at 1 h", "setting": "[2]; PBS (pH 7.4)", "result": 49.3, "unit": "µM"}]}
{"smiles": "N.N.[Cl][Pt][Cl]", "note": "[cisplatin]", "values": [{"measurement": "TRCs not killed", "setting": "[5]", "result": "20–30%"}]}
{"smiles": "COCCOCOc1cc2ccc(-c3ccc(C(=O)O)cc3)cc2cc1C12CC3CC(CC(C3)C1)C2", "note": "[CD2665, reference compound]", "values": [{"measurement": "Impact of antagonist alone on TRC growth", "setting": "[1]", "result": "no impact on TRC growth"}, {"measurement": "Rescue of TRC growth from inhibitory effects of Tazarotene by pretreatment", "setting": "[1]", "result": "rescuing effect was minimal"}, {"measurement": "Rescue of TRC growth from inhibitory effects of WYC-209 by pretreatment", "setting": "[1]", "result": "rescued the TRC growth"}]}
{"smiles": "CC1(C)CC[S+]([O-])c2ccc(C#Cc3ccc(C(=O)O)cn3)cc21", "note": "(centres unmarked) [AGN 190844]", "values": [{"measurement": "Activity after oxidation of the sulfur atom on Tazarotene", "setting": "[6]", "result": "loses its activity"}]}
{"smiles": "COc1ccc2[nH]c([S+]([O-])Cc3ncc(C)c(OC)c3C)nc2c1", "note": "(centres unmarked) [omeprazole, reference compound]", "values": [{"measurement": "IC50", "setting": "[7]", "result": 4990, "unit": "nM"}]}
{"smiles": "CCc1ccc(C2=CC(C)(C)Sc3ccc(C#Cc4ccc(C(=O)O)cc4)cc32)cc1", "note": "[AGN-194310, reference compound]", "values": [{"measurement": "Rescue of TRC growth from inhibitory effects of WYC-209 by pretreatment", "setting": "[1]", "result": "rescued the TRC growth"}]}
{"smiles": "COC(=O)CC[C@H](NC(=O)[C@H](CC(=O)OC)NC(=O)OCc1ccccc1)C(=O)N[C@H](C(=O)N[C@@H](CC(=O)OC)C(=O)CF)C(C)C", "note": "[z-DEVD-FMK, reference compound]", "values": [{"measurement": "Rescue of A375 TRC growth from WYC-209 inhibition by pretreatment", "setting": "[8]", "result": "substantially rescued growth"}, {"measurement": "Rescue of TRC growth from inhibitory effects of Tazarotene by pretreatment", "setting": "[1]", "result": "could not rescue growth"}, {"measurement": "Rescue of TRC growth from inhibitory effects of WYC-209 by pretreatment", "setting": "[1]", "result": "substantially rescued growth"}]}
